Measurements taken from patent US12581252B2, “Substituted pyrrolo[3,4-b]pyridines as PI3K-α inhibitors” (Relay Therapeutics, Inc., priority 2020, dated 2026).

Key:
H1047R PIK3CA enzyme = H1047R PIK3CA enzyme (Homo sapiens, UniProt P42336, H1047R); assay: ADP-Glo Biochemical PIK3CA Kinase Assay
cells = conditions: Homo sapiens, MCF-10A, read-out: MCF10A IC50

Chain of H1047R PIK3CA enzyme (P42336 whole entry H1047R): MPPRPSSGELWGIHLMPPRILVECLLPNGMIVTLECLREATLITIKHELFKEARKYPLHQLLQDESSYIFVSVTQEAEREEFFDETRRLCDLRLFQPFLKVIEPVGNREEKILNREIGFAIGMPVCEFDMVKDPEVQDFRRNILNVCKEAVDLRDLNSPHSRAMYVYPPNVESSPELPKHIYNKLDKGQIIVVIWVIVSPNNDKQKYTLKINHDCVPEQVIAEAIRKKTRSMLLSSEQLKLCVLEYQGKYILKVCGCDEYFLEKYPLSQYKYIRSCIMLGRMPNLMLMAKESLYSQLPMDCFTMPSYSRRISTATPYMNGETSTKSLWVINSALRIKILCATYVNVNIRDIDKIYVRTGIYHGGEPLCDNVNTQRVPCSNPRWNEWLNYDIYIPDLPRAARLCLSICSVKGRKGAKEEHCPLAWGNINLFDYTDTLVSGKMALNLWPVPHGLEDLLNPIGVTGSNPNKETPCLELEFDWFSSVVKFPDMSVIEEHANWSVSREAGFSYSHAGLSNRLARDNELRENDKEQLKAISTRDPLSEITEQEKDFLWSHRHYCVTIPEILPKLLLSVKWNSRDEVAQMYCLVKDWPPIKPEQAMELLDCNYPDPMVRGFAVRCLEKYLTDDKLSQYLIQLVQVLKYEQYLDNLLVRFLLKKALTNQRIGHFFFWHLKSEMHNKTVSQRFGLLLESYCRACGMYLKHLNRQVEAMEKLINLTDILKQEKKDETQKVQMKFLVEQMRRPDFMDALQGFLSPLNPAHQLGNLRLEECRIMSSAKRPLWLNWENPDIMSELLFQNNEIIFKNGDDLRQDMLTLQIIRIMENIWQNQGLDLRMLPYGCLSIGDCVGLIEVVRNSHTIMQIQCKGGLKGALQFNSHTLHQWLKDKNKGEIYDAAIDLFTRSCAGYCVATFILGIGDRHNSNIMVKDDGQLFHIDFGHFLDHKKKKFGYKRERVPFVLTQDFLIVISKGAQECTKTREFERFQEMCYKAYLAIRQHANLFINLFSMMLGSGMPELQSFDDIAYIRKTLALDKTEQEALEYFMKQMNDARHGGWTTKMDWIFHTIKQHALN
Chain of H1047R PIK3CA enzyme (P27986 whole entry partner): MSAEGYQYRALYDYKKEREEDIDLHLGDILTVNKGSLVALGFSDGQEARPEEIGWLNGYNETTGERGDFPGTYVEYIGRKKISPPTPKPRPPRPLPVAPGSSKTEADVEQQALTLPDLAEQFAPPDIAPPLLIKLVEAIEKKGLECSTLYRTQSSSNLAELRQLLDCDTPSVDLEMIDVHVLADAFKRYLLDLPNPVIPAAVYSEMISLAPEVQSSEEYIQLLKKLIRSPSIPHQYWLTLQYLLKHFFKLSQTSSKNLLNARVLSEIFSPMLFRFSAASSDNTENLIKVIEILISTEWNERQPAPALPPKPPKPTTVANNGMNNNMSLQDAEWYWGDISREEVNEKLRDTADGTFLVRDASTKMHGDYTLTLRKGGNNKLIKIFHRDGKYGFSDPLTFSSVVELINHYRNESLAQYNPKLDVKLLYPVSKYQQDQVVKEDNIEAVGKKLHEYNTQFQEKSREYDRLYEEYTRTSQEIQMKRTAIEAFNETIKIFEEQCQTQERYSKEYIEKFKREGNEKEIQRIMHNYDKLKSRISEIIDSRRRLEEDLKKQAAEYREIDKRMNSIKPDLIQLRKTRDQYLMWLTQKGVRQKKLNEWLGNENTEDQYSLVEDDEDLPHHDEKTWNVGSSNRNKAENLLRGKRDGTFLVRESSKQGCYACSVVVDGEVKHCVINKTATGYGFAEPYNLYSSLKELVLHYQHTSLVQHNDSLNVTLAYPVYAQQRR

Row | SMILES | IC50 (H1047R PIK3CA enzyme) | IC50 (cells)
1 | CC(C)(O)Cn1cc(-c2cc(NC(=O)c3cc(F)cc(C(F)(F)F)c3)c3c(c2)C(=O)N[C@H]3c2cc(F)ccc2Cl)cn1 [Compound I-1097] | ≤ 100 nM | < 1000 nM
2 | Cc1nc(Nc2cc(NC(=O)c3cc(F)cc(C(F)(F)F)c3)c3c(c2)C(=O)NC3c2cc(F)ccc2Cl)oc1C (stereo not drawn) [Compound I-966] | ≤ 100 nM | < 1000 nM
3 | O=C(Nc1cc(-n2ccnc2)cc2c1C(c1cc(F)ccc1Cl)NC2=O)c1cc(F)cc(C(F)(F)F)c1 (stereo not drawn) [Compound I-1015] | ≤ 100 nM | < 1000 nM
4 | O=C1N[C@@H](c2cc(F)ccc2Cl)c2c(NC(=O)N3C[C@@H](O)c4ccccc43)cc(Br)cc21 (single isomer, unassigned) [Compound I-1514] | ≤ 100 nM | 1000 to 5000 nM
5 | O=C1N[C@@H](c2cc(F)ccc2Cl)c2c(NC(=O)N3CCc4cc(F)ccc43)cc(-c3cnn(C(F)F)c3)cc21 (single isomer, unassigned) [Compound I-2357] | ≤ 100 nM | < 1000 nM
6 | Nc1cc(NC(=O)N2C[C@@H](O)c3ccccc32)c2c(c1)C(=O)N[C@H]2c1cc(F)ccc1Cl (single isomer, unassigned) [Compound I-2133] | ≤ 100 nM | < 1000 nM
7 | O=C(Nc1cc(-c2cscn2)cc2c1C(c1cc(F)ccc1Cl)NC2=O)c1cc(F)cc(C(F)(F)F)c1 (stereo not drawn) [Compound I-920] | ≤ 100 nM | < 1000 nM
8 | O=C1NC(c2cc(F)ccc2Cl)c2c(NC(=O)N3CC(C(F)F)c4ccccc43)cccc21 (mixture of isomers) [Compound I-2246] | ≤ 100 nM | 1000 to 5000 nM
9 | Cc1cnccc1-c1cc(NC(=O)c2cc(F)cc(C(F)(F)F)c2)c2c(c1)C(=O)N[C@H]2c1cc(F)ccc1Cl (stereo in doubt) [Compound I-1010] | ≤ 100 nM | < 1000 nM
10 | O=C(Nc1cc(-c2ccc3nccnc3c2)cc2c1C(c1cc(F)ccc1Cl)NC2=O)c1cc(F)cc(C(F)(F)F)c1 (stereo not drawn) [Compound I-1012] | ≤ 100 nM | < 1000 nM
11 | O=C(Nc1cc(-c2nc3ccccc3[nH]2)cc2c1C(c1cc(F)ccc1Cl)NC2=O)c1cc(F)cc(C(F)(F)F)c1 (stereo not drawn) [Compound I-1101] | ≤ 100 nM | < 1000 nM
12 | O=C1NC(c2cc(F)ccc2Cl)c2c(NC(=O)N3CC(O)c4cc(F)ccc43)cc(-n3cncn3)cc21 (mixture of isomers) [Compound I-2414] | 100 to 500 nM | 10000 to 36000 nM
13 | NCCc1cc(NC(=O)N2C[C@H](O)c3cc(F)ccc32)c2c(c1)C(=O)N[C@@H]2c1cc(F)ccc1Cl (single isomer, unassigned) [Compound I-2443] | ≤ 100 nM | 10000 to 36000 nM
14 | O=C(Nc1cc(-c2cnc3ccccc3n2)cc2c1C(c1cc(F)ccc1Cl)NC2=O)c1cc(F)cc(C(F)(F)F)c1 (stereo not drawn) [Compound I-948] | ≤ 100 nM | < 1000 nM
15 | O=C1COCc2cc(-c3cc(NC(=O)c4cc(F)cc(C(F)(F)F)c4)c4c(c3)C(=O)NC4c3cc(F)ccc3Cl)ccc2N1 (stereo not drawn) [Compound I-1043] | ≤ 100 nM | < 1000 nM
16 | O=C1N[C@@H](c2cc(F)ccc2Cl)c2c(NC(=O)N3C[C@](O)(C(F)(F)F)c4cc(F)ccc43)ccc(-n3nccn3)c21 (single isomer, unassigned) [Compound I-2525] | ≤ 100 nM | < 1000 nM
17 | O=C(Nc1cc(-c2cnc3cnccn23)cc2c1C(c1cc(F)ccc1Cl)NC2=O)c1cc(F)cc(C(F)(F)F)c1 (stereo not drawn) [Compound I-940] | ≤ 100 nM | < 1000 nM
18 | COc1nc(-c2cc(NC(=O)c3cc(F)cc(C(F)(F)F)c3)c3c(c2)C(=O)NC3c2cc(F)ccc2Cl)cs1 (stereo not drawn) [Compound I-1066] | ≤ 100 nM | 1000 to 5000 nM
19 | COc1ccc(NC(=O)c2csc3ccccc23)c2c1C(=O)NC2c1ccccc1C (stereo not drawn) [Compound I-35] | ≤ 100 nM | 1000 to 5000 nM
20 | O=C(Nc1cc(-c2ccnc3[nH]ccc23)cc2c1C(c1cc(F)ccc1Cl)NC2=O)c1cc(F)cc(C(F)(F)F)c1 (stereo not drawn) [Compound I-1049] | ≤ 100 nM | < 1000 nM
21 | N#Cc1ccc(-c2cc(NC(=O)c3cc(F)cc(C(F)(F)F)c3)c3c(c2)C(=O)N[C@@H]3c2cc(F)ccc2Cl)cn1 (single isomer, unassigned) [Compound I-1000] | ≤ 100 nM | < 1000 nM
22 | Nc1cc(NC(=O)N2C[C@@H](O)c3cc(F)ccc32)c2c(c1)C(=O)N[C@H]2c1cc(F)ccc1Cl (single isomer, unassigned) [Compound I-2411] | ≤ 100 nM | 10000 to 36000 nM
23 | O=C1NC(c2cc(F)ccc2Cl)c2c(NC(=O)N3CCc4ccccc43)cccc21 (stereo not drawn) [Compound I-2479] | ≤ 100 nM | 1000 to 5000 nM
24 | Cn1ccc(Nc2cc(NC(=O)c3cc(F)cc(C(F)(F)F)c3)c3c(c2)C(=O)N[C@H]3c2cc(F)ccc2Cl)n1 [Compound I-1071] | ≤ 100 nM | < 1000 nM
25 | N#CCc1cc(NC(=O)N2C[C@@H](O)c3cc(F)ccc32)c2c(c1)C(=O)N[C@H]2c1cc(F)ccc1Cl (single isomer, unassigned) [Compound I-2537] | ≤ 100 nM | < 1000 nM
26 | O=C(Nc1cc(-n2cncn2)cc2c1C(c1cc(F)ccc1Cl)NC2=O)c1cc(F)cc(C(F)(F)F)c1 (stereo not drawn) [Compound I-1086] | ≤ 100 nM | < 1000 nM

Row | SMILES | IC50 (H1047R PIK3CA enzyme) | IC50 (cells)
27 | O=C1NC(c2cc(F)ccc2Cl)c2c(NC(=O)N3CC(O)(C(F)(F)F)c4ccccc43)cc(Cl)cc21 (mixture of isomers) [Compound I-2483] | ≤ 100 nM | < 1000 nM
28 | O=C1N[C@H](c2ccccc2Cl)c2c(NC(=O)N3C[C@@](O)(C(F)(F)F)c4cc(F)ccc43)cccc21 (single isomer, unassigned) [Compound I-2688] | ≤ 100 nM | < 1000 nM
29 | CNc1cc(NC(=O)N2CC(O)(C(F)(F)F)c3cc(F)ccc32)c2c(c1C#N)C(=O)NC2c1cc(F)ccc1Cl (stereo not drawn) [Compound I-2587] | ≤ 100 nM | 1000 to 5000 nM
30 | O=C(Nc1cc(-c2cn3ccnc3cn2)cc2c1C(c1cc(F)ccc1Cl)NC2=O)c1cc(F)cc(C(F)(F)F)c1 (stereo not drawn) [Compound I-946] | ≤ 100 nM | < 1000 nM
31 | Cc1noc(C)c1Nc1cc(NC(=O)c2cc(F)cc(C(F)(F)F)c2)c2c(c1)C(=O)NC2c1cc(F)ccc1Cl (stereo not drawn) [Compound I-923] | ≤ 100 nM | < 1000 nM
32 | Cn1cc(-c2cc(NC(=O)c3cc(F)cc(C(F)(F)F)c3)c3c(c2)C(=O)NC3c2cc(F)ccc2Cl)cn1 (stereo not drawn) [Compound I-811] | ≤ 100 nM | < 1000 nM
33 | O=C1N[C@@H](c2cc(F)ccc2Cl)c2c(NC(=O)N3C[C@@](O)(C(F)(F)F)c4ccccc43)cccc21 (single isomer, unassigned) [Compound I-2386] | ≤ 100 nM | < 1000 nM
34 | O=C(Nc1cc(-c2cccn3nccc23)cc2c1C(c1cc(F)ccc1Cl)NC2=O)c1cc(F)cc(C(F)(F)F)c1 (stereo not drawn) [Compound I-983] | ≤ 100 nM | < 1000 nM
35 | CC(C)(O)CNc1cc(NC(=O)c2cc(F)cc(C(F)(F)F)c2)c2c(c1)C(=O)N[C@@H]2c1cc(F)ccc1Cl [Compound I-900] | ≤ 100 nM | < 1000 nM
36 | O=C(Nc1cc(Nc2cc[nH]n2)cc2c1C(c1cc(F)ccc1Cl)NC2=O)c1cc(F)cc(C(F)(F)F)c1 (stereo not drawn) [Compound I-1112] | ≤ 100 nM | < 1000 nM
37 | O=C(Nc1cc(Br)cc2c1[C@H](c1cc(F)ccc1Cl)NC2=O)c1cc(F)cc(C(F)(F)F)c1 [Compound I-388] | ≤ 100 nM | < 1000 nM
38 | Cn1cc(Nc2cc(NC(=O)c3cc(F)cc(C(F)(F)F)c3)c3c(c2)C(=O)N[C@H]3c2cc(F)ccc2Cl)cn1 (single isomer, unassigned) [Compound I-997] | ≤ 100 nM | < 1000 nM
39 | O=C1NCc2cc(-c3cc(NC(=O)c4cc(F)cc(C(F)(F)F)c4)c4c(c3)C(=O)NC4c3cc(F)ccc3Cl)ccc2O1 (stereo not drawn) [Compound I-981] | ≤ 100 nM | < 1000 nM
40 | O=C(Nc1cc(-c2ncc[nH]2)cc2c1[C@H](c1cc(F)ccc1Cl)NC2=O)c1cc(F)cc(C(F)(F)F)c1 [Compound I-919] | ≤ 100 nM | < 1000 nM
41 | N#Cc1cc(NC(=O)N2C[C@](O)(C(F)(F)F)c3cc(F)ccc32)c2c(c1)C(=O)N[C@@H]2c1cc(F)ccc1Cl (single isomer, unassigned) [Compound I-2562] | ≤ 100 nM | < 1000 nM
42 | O=C(Nc1cc(-c2cccc3ncccc23)cc2c1C(c1cc(F)ccc1Cl)NC2=O)c1cc(F)cc(C(F)(F)F)c1 (stereo not drawn) [Compound I-931] | ≤ 100 nM | < 1000 nM
43 | O=C(Nc1cc(-c2cn3ncnc3cn2)cc2c1C(c1cc(F)ccc1C(F)F)NC2=O)c1cc(F)cc(Cl)c1 (stereo not drawn) [Compound I-2201] | ≤ 100 nM | 1000 to 5000 nM
44 | CN(C)c1nc2cc(-c3cc(NC(=O)c4cc(F)cc(C(F)(F)F)c4)c4c(c3)C(=O)NC4c3cc(F)ccc3Cl)ccn2n1 (stereo not drawn) [Compound I-2200] | ≤ 100 nM | < 1000 nM
45 | O=C(Nc1cc(Nc2ncc[nH]2)cc2c1C(c1cc(F)ccc1Cl)NC2=O)c1cc(F)cc(C(F)(F)F)c1 (stereo not drawn) [Compound I-999] | ≤ 100 nM | 1000 to 5000 nM
46 | CC(C)(O)c1ncc(-c2cc(NC(=O)c3cc(F)cc(C(F)(F)F)c3)c3c(c2)C(=O)NC3c2cc(F)ccc2Cl)cn1 (stereo not drawn) [Compound I-941] | 100 to 500 nM | < 1000 nM
47 | O=C1CCc2c(cccc2-c2cc(NC(=O)c3cc(F)cc(C(F)(F)F)c3)c3c(c2)C(=O)NC3c2cc(F)ccc2Cl)N1 (stereo not drawn) [Compound I-1028] | ≤ 100 nM | < 1000 nM
48 | O=C(Nc1cc(-c2ccc3nccn3n2)cc2c1C(c1cc(F)ccc1Cl)NC2=O)c1cc(F)cc(C(F)(F)F)c1 (stereo not drawn) [Compound I-905] | ≤ 100 nM | < 1000 nM
49 | CC(O)c1cc(NC(=O)N2CC(O)c3ccccc32)c2c(c1)C(=O)NC2c1cc(F)ccc1Cl (stereo not drawn) [Compound I-2288] | ≤ 100 nM | 10000 to 36000 nM
50 | COc1nccc(N2CC(c3cc(NC(=O)c4cc(F)cc(C(F)(F)F)c4)c4c(c3)C(=O)NC4c3cc(F)ccc3Cl)C2)n1 (stereo not drawn) [Compound I-1162] | ≤ 100 nM | < 1000 nM
51 | Cc1cn(-c2cc(NC(=O)N3C[C@](O)(C(F)(F)F)c4cc(F)ccc43)c3c(c2)C(=O)N[C@@H]3c2cc(F)ccc2Cl)cn1 (single isomer, unassigned) [Compound I-2637] | ≤ 100 nM | < 1000 nM
